# Reference: patent US20160228434A1, “TREATMENT OF DISEASES CAUSED BY ABNORMAL LYMPHOCYTE FUNCTION WITH AN HDAC6 INHIBITOR” (priority 2013, published 2016)
# “Also recorded” adds a separate entry of the source.
# How the values were obtained:
# Format in all cases: in vivo
# [1] = system: Treg cells (CD4+Foxp3+CD25+); test: Splenic Treg phenotype by flow cytometry in treated NZB/W mice; conditions: 38-week-old NZB/W mice, both doses (5 and 20 mg/kg), vs vehicle control
# Procedure: (§1) NZB/W mice were injected intraperitoneally 5 days/week with the vehicle control (DMSO), ACY-738 treatment at 5 mg/kg (low-dose), or ACY-738 treatment at 20 mg/kg (high-dose) beginning at 22-weeks-of-age until euthanization at 38 weeks-of-age. ACY-738 was received from Acetylon Pharmaceuticals for use in all studies. Proteinuria and weight were measured every 2 weeks and blood was collected every four weeks for sera analysis. Proteinuria was measured by a standard semi-quantitative test using Siemens Uristix dipsticks (Siemens Healthcare, Deerfield, Ill., USA). Results were quantified according to the manufacturer's instructions and scored as follows: dipstick reading of 0 mg/dL=0, trace=1, 30-100 mg/dL=2, 100-300 mg/dL=3, 300-2000 mg/dL=4, and 2000+ mg/dL=5.
# A single-cell suspension was obtained from the thymuses and spleens of treated NZB/W mice at 38 weeks-of-age. Briefly, the thymus was removed from each NZB/W mouse and dissociated across a sterile wire mesh in a petri dish containing ice-cold RPMI 1640 medium (Thermo Scientific). RBCs were lysed using RBC lysis buffer and cells were pelleted and washed with PBS. Splenocytes were stained with APC-conjugated CD3, FITC-conjugated CD4, eFluor450 (eF450)-conjugated CD8a, PerCP-CY5.5-conjugated CD25, and PE-conjugated Foxp3. […] Fluorescence was measured using a FACScan flow cytometer and data was analyzed by FlowJo software. […]
# [2] = system: glomerular IgG and C3 deposition; test: Glomerular immune complex (IgG, C3) deposition by immunofluorescence in treated NZB/W mice; conditions: for glomerular C3 deposition (score 0-4, fluorescence) / glomerular IgG deposition (score 0-4, fluorescence): vs vehicle control
# Procedure: as §1
# One half of each kidney was placed in OCT media and snap-frozen in a slurry containing dry ice and 2-methylbutane (Fisher Scientific, Hampton, N.H., USA). Frozen kidney sections were cut into […] sections and stained with goat anti-mouse IgG conjugated to FITC (Pierce) diluted 1:100 or goat anti-mouse C3-FITC (Pierce, Thermo Fisher Scientific, Waltham, Mass., USA) diluted 1:100. Kidney sections were examined by fluorescent microscopy. Sections were scored (0-4) for immune complex deposition by a pathologist in a blinded manner.
# 5 μM kidney sections were stained with FITC-conjugated C3 or IgG and assessed for fluorescence intensity. (see FIGS. 10A and 10B).
# [3] = system: bone marrow pro-B cell (B220+CD43+) and pre-B cell (B220+CD43-) populations; test: Bone marrow pro- and pre-B cell differentiation by flow cytometry in treated NZB/W mice
# Excerpt: Bone marrow cells were flushed in PBS with 1% BSA from the femurs of NZB/W mice following euthanization. Red blood cells (RBCs) were lysed using ammonium chloride potassium (ACK) lysing solution. Single-cell suspensions were then washed and stained with Allo-Phycocyanin (APC)-conjugated […] and Flourescein Isothiocyanate (FITC)-conjugated CD43 anti-mouse mAbs to identify pro-B cell (B220^+ CD43^+) and pre-B cell (B220^+ CD43^−) populations. Pro-B cell populations were further stained with Phycoerythirn (PE)-conjugated BP1 and PECy5 or Peridinin-chlorophyll proteins (PerCP)-conjugated CD24 anti-mouse mAbs to identify fractions A (B220^+ CD43^+ CD24^− BP1^−), B (B220^+ CD43^+ CD24^+ BP1^−), C (B220^+ CD43^+ CD24^lo BP1), and C′ (B220^+ CD43^+ CD24^hi BP1^+). Pre-B cells fractions were further stained with PE-conjugated IgD, and PECy5-conjugated IgM anti-mouse mAbs to identify fractions D (B220^+ CD43^− IgM^− IgD^−), E (B220^+ CD43^− IgM^+ IgD^−) and F (B220^+ CD43^− IgM^+ IgD^+). Fractions were measured by flow cytometric analysis. All antibodies were purchased from eBioscience (San Diego, Calif., USA). Flow cytometry was performed at that College of Veterinary Medicine Flow Cytometry Core Facility using a FACScan flow cytometer (Becton Dickinson, Franklin Lakes, N.J., USA). Flow cytometry data was analyzed using FlowJo Software (Tree Star, Ashland, Oreg., USA).
# as §1
# Following treatment with ACY-738, harvested bone marrow cells were stained with B220 and CD43 and the percentage of pro- and pre-B cells was determined using flow cytometric analysis. FIG. 2A depicts a representative flow cytometry image of pro-B cell (B220^+ CD43^+) and pre-B cell (B220^+ CD43^−) populations.
# [4] = system: sera anti-dsDNA, IgG, IgG2a, IgG2b, IgM; test: Sera anti-dsDNA and Ig isotype levels by ELISA in treated NZB/W mice
# Procedure: as §1
# Sera were collected prior to initiation of treatment at 22 weeks-of-age and every 4 weeks until euthanization. The mice were anesthetized using isoflurane (Piramal Healthcare, Mumbai, Maharashtra, India) and bled from the retro-orbital sinus. Blood was allowed to clot for 2 hours and then centrifuged for 15 min at 10,000×g. The levels of sera antibodies to dsDNA were measured by ELISA. Sera samples were added to the plate at a 1:100 dilution, followed by a two-fold serial dilution. The plate was read at 380 nm on a Spectramax 340PC microplate spectrophotometer (Molecular Devices, Sunnyvale, Calif., USA). A final dilution of 1:800 was reported.
# [5] = 16 weeks of treatment, dose not stated
# [6] = both high (20 mg/kg) and low (5 mg/kg) dose
# [7] = i.p. 5 days/week, 22 to 38 weeks-of-age, 5 or 20 mg/kg
# [8] = NZB/W mice, 5 and 20 mg/kg, dose-dependent
smiles,measurement,setting,value
O=C(NO)c1cnc(NC2(c3ccccc3)CC2)nc1 [ACY-738],percentage of splenic Treg cells (CD4+Foxp3+CD25+),[1],significantly increased
same,"glomerular C3 deposition (score 0-4, fluorescence)","[2]; 5 mg/kg, 5 mg/kg",slight decrease; also recorded: no significant effect
same,"glomerular IgG deposition (score 0-4, fluorescence)","[2]; 5 mg/kg, 5 mg/kg",slight decrease; also recorded: no significant effect
same,"glomerular C3 deposition (score 0-4, fluorescence)","[2]; 20 mg/kg (high dose), 20 mg/kg",significantly decreased
same,"glomerular IgG deposition (score 0-4, fluorescence)","[2]; 20 mg/kg (high dose), 20 mg/kg",significantly decreased
same,glomerular C3 deposition level,[2]; [5],significantly decreased
same,glomerular IgG deposition level,[2]; [5],significantly decreased
same,percentage of pre-B cells in fraction D,[3]; [6],significant increase
same,percentage of pre-B cells in fraction E,[3]; [6],significant increase
same,pre-B cells in fraction F,[3]; [6],decrease
same,pre-B cell population (B220+CD43-) in bone marrow,"[3]; i.p. 5 days/week, 22 to 38 weeks-of-age, 5 and 20 mg/kg",significantly decreased in a dose-dependent manner
same,percentage of pro-B cells in fraction A,[3]; [7],significantly increased
same,percentage of pro-B cells in fraction C,[3]; [7],significantly increased
same,percentage of pro-B cells (B220+CD43+) in bone marrow,"[3]; i.p. 5 days/week, 22 to 38 weeks-of-age, 5 or 20 mg/kg, vs vehicle",not significantly altered
same,sera IgG2b level,[4]; NZB/W mice at 38 weeks-of-age,significantly increased
same,sera total IgM level,[4]; NZB/W mice at 38 weeks-of-age,slightly increased; also recorded: no effect
same,sera anti-dsDNA,"[4]; NZB/W mice, 5 mg/kg, vs vehicle control, p<0.05",significant decrease
same,sera anti-dsDNA,"[4]; NZB/W mice, 20 mg/kg (high dose), 38 weeks-of-age, 16 weeks of treatment, 20 mg/kg",prevent an increase in anti-dsDNA; also recorded: more pronounced
same,sera IgG2a level,[4]; [8],significantly decreased
same,sera total IgG level,[4]; [8],significantly decreased
